Legend:
B. bovis = experiment: Growth inhibitory fluorescence assay in vitro, B. bovis; type: cell-based, Babesia bovis
Description: (§1) Texas strain of B. bovis and Argentina strain of B. bigemina were grown using bovine red blood cells (RBCs, collected from cattle farm of Obihiro University of Agriculture and Veterinary Medicine and stored at 4°C) in medium 199 (M199; Sigma-Aldrich, Tokyo, Japan) supplemented with 40% bovine serum, while RPMI 1640 medium (Sigma-Aldrich, Tokyo, Japan) was used for B. divergens (German strain) cultivation. The United States Department of Agriculture (USDA) strain of T. equi was grown in equine RBCs (collected from horse farm of Obihiro University of Agriculture and Veterinary Medicine and stored at 4°C) in M199 supplemented with 40% equine serum, and hypoxanthine (MP Biomedicals, Santa Ana, CA, USA) at a final concentration of 13.6 μg/ml was used as a vital supplement, while GIT medium was used for B. caballi (USDA strain) cultivation. Sixty μg/ml of streptomycin, 0.15 μg/ml of amphotericin B, and 60 U/ml of penicillin G (Sigma-Aldrich, Tokyo, Japan) were added to all media to prevent fungal and bacterial contamination. All parasite cultures were maintained for a long time in a microaerophilic stationary-phase culture system.
(§2) The inhibition assay was conducted according to the previously described protocol. Briefly, different concentrations of CRY, DA, CF, and AQ were added in triplicate in 96-well plates with 1% parasitemia and 2.5% HCT for B. bovis and B. bigemina and 5% HCT for B. divergens, B. caballi, and T. equi. The plates were incubated in a humidified incubator with 5% CO2, 5% O2, and 90% N2 for 96 h without changing the media. After 96 h, 100 μl of lysis buffer containing 2 × SG1 was directly added to each well and the plates were then wrapped in aluminum foil for protection from direct light and incubated for 6 h at room temperature. Afterward, the fluorescence was measured using a fluorescence spectrophotometer (Fluoroskan Ascent, Thermo Fisher Scientific, USA) at 485 nm excitation and 518 nm emission wavelengths. The relative fluorescence value was set to percentages after subtracting the mean values of the negative control. The experiment was repeated thrice.
(§3) The IC50 values of CRY, DA, CF, and AQ were determined using the nonlinear regression curve fit in GraphPad Prism (GraphPad Software Inc., San Diego, CA, USA). Combination index (CI) values for the drug combination were calculated using CompuSyn software, and the degree of synergism was determined as the weighted average of CI values using a formula [(1 x IC50) + (2 x IC75) + (3 x IC90) + (4 x IC95)]/10 [30]. The differences in parasitemia and hematology profiles in the B. microti–infected mice were analyzed using an independent Student’s t-test and one-way ANOVA test using GraphPad Prism version 5.0 for Windows (GraphPad Software Inc., San Diego, CA, USA). A P-value < 0.05 was considered statistically significant.

B. bigemina = experiment: Growth inhibitory fluorescence assay in vitro, B. bigemina; type: cell-based, Babesia bigemina
Description: as §1, §2, §3

B. divergens = experiment: Growth inhibitory fluorescence assay in vitro, B. divergens; type: cell-based, Babesia divergens
Description: as §1, §2, §3

B. caballi = experiment: Growth inhibitory fluorescence assay in vitro, B. caballi; type: cell-based, Babesia caballi
Description: as §1, §2, §3

T. equi = experiment: Growth inhibitory fluorescence assay in vitro, T. equi; type: cell-based, Theileria equi
Description: as §1, §2, §3

[1] = test system: Madin–Darby bovine kidney (MDBK) cell line; experiment: cells; type: cell-based; details: for EC50: cell viability, MDBK, 24 h, CCK-8
Description: (§4) Madin–Darby bovine kidney (MDBK) (ECACC), mouse embryonic fibroblast (NIH/3T3 ATCC CRL-1658) and Human foreskin fibroblast (HFF HFF-1 ATCC SCRC-1041) cell lines were recovered from -80°C stock and cultured continuously in our laboratory at 37°C in a humidified incubator with 5% CO2. In 75 cm^2 culture flasks, NIH/3T3 and HFF cell lines were maintained with Dulbecco’s Modified Eagle’s Medium (DMEM; Gibco, Grand Island, NY, USA), while the MDBK cell line was maintained with Minimum Essential Medium Eagle (MEM; Gibco). Ten percent fetal bovine serum, 1% glutamine, and 0.5% penicillin/streptomycin (Gibco) were added to all media and the cells were stained with 4, 6-diamidino-2-phenylindole dihydrochloride (DAPI; Sigma-Aldrich, St. Louis, MO, USA) to ensure that they were free from mycoplasma contamination. Afterward, the cells were washing twice with Dulbecco’s phosphate-buffered saline and TrypLE Express (Gibco) was used for cell detachment from the culture flask. Finally, Neubauer improved C-Chip (NanoEntek Inc., Seoul, Korea) was used for counting the viable cells after staining with 0.4% trypan blue solution.
(§5) The cytotoxicity assay was performed in accordance with the previously described protocol. Briefly, the assay was carried out using 96-well plates at 37 °C in a humidified incubator with 5% CO2, 100 μl of cells at a density of 5 x 10^4 cells/ml was seeded per well and allowed to attach to the plate for 24 h. Ten microliters of twofold drug dilutions was added to each well to a final concentration of 0.781 to 100 μM in triplicate and incubated for another 24 h. Ten μl of Cell Counting Kits-8 (CCK-8; Dojindo, Japan) was added to each well and incubated for another 3 h, and the absorbance was measured at 450 nm using a microplate reader.

[2] = test system: human foreskin fibroblast (HFF) cell line; experiment: cells; type: cell-based; details: for EC50: cell viability, HFF, 24 h, CCK-8
Description: as §4, §5

[3] = test system: mouse embryonic fibroblast (NIH/3T3) cell line; experiment: cells; type: cell-based; details: for EC50: cell viability, NIH/3T3, 24 h, CCK-8
Description: as §4, §5

B. microti = experiment: Chemotherapeutic effect against B. microti in mice (parasitemia); type: in vivo, Babesia microti; details: BALB/c mice, 25 mg/kg DA i.p.
Description: Rodent B. microti (Munich strain) was recovered from -80°C stock and injected intraperitoneally (i.p.) in two 8-week-old female BALB/c mice purchased from CLEA Japan (Clea Japan, Tokyo, Japan). The mice were euthanized using an anesthesia system containing isoflurane after parasitemia reached approximately 30% and the blood was collected by cardiac puncture to conduct the in vivo studies.
(§6) The promising effect of CRY in vitro encouraged us to evaluate its in vivo effects against B. microti in mice. The assay was conducted in accordance with the previously described protocol. In two separate trials, 35 female 8-week-old BALB/c mice, housed under a pathogen-free environment with controlled humidity, temperature (22°C) and a 12 h light/ dark cycle were caged in seven groups, each group consisting of five mice. Six groups were i.p. injected with 0.5 ml of inoculum (1×10^7 B. microti iRBCs), while the seventh group was left uninfected and untreated to act as a negative control. When the average parasitemia in all infected mice reached approximately 1%, the 5-day drug treatment was initiated. The first and second groups were i.p. injected with 25 mg/kg body weight (BW) of DA and 5 mg/kg BW of CRY, respectively. The third group received 20 mg/kg BW of AQ orally, while the fourth and fifth groups were administered a combination of 2.5 mg/kg BW CRY + 12.5 mg/kg BW DA and 2.5 mg/kg BW CRY + 10 mg/kg AQ via a route similar to that of the single-drug treatment, respectively. The sixth group received 5% DMSO in physiological saline i.p. as a positive control. Parasitemia and hematology profiles (RBCs, hemoglobin (HGB), and HCT) were monitored every 2 and 4 days by microscopic examination and hematology analyzer (Celltac α MEK-6450, Nihon Kohden Corporation, Tokyo, Japan), respectively. On day 49, all mice were euthanized using an anesthesia system containing isoflurane and the blood was collected by cardiac puncture for PCR detection of the parasites.

[4] = test system: B. microti small-subunit rRNA (ss-rRNA) gene; experiment: Nested PCR detection of B. microti DNA in blood of treated mice; type: in vivo, Babesia microti; details: day 49, 25 mg/kg DA
Description: as §6
The nested PCR (nPCR) that targeted the B. microti small-subunit rRNA (ss-rRNA) gene was performed in accordance with the previously described protocol and the genomic DNA was extracted from blood samples collected from all mice groups on day 49 post-infection (p.i.) using a QIAamp DNA Blood Mini Kit (Qiagen, Tokyo, Japan). PCR cycling conditions were performed as previously described and the bands with an expected size of 154 bp were considered positive.

SMILES: CC(=O)NCC(=O)O.CC(=O)NCC(=O)O.N=C(N)c1ccc(N=NNc2ccc(C(=N)N)cc2)cc1 [DA, diminazene aceturate]
- IC50 (B. bovis; B. bovis in vitro culture, fluorescence assay, 96 h): 350 ± 0.06 nM
- IC50 (B. bigemina; B. bigemina in vitro culture, fluorescence assay, 96 h): 680 ± 0.09 nM
- IC50 (B. divergens; B. divergens in vitro culture, fluorescence assay, 96 h, read-out: IC50): 430 ± 0.05 nM
- IC50 (B. caballi; B. caballi in vitro culture, fluorescence assay, 96 h): 22 ± 0.0002 nM
- IC50 (T. equi; T. equi in vitro culture, fluorescence assay, 96 h): 710 ± 0.05 nM
- inhibition of cell line at 100 μM [1]: did not show any inhibition
- EC50 [1]: > 100000 nM
- inhibition of cell line at 100 μM [2]: did not show any inhibition
- EC50 [2]: > 100000 nM
- inhibition of cell line at 100 μM [3]: did not show any inhibition
- EC50 [3]: > 100000 nM
- day p.i. on which parasitemia was undetectable by microscopy (B. microti): 16 days
- peak parasitemia level (B. microti; 5 days, day 10): 8.5%
- parasite DNA in blood (nPCR) [4]: not detected

SMILES: CC(C)/N=c1\cc2n(-c3ccc(Cl)cc3)c3ccccc3nc-2cc1Nc1ccc(Cl)cc1 [CF, clofazimine]
- Selective index HFF (B. bovis; EC50 HFF / IC50 B. bovis): ˃ 12.1
- Selective index MDBK (B. bovis; EC50 MDBK / IC50 B. bovis): 4.2
- Selective index NIH/3T3 (B. bovis; EC50 NIH/3T3 / IC50 B. bovis): ˃ 12.1
- Selective index HFF (B. bigemina; EC50 HFF / IC50 B. bigemina): ˃ 17.5
- Selective index MDBK (B. bigemina; EC50 MDBK / IC50 B. bigemina): 6.1
- Selective index NIH/3T3 (B. bigemina; EC50 NIH/3T3 / IC50 B. bigemina): ˃ 17.5
- Selective index HFF (B. divergens; EC50 HFF / IC50 B. divergens): ˃ 7.2
- Selective index MDBK (B. divergens; EC50 MDBK / IC50 B. divergens): 2.5
- Selective index NIH/3T3 (B. divergens; EC50 NIH/3T3 / IC50 B. divergens): ˃ 7.2
- Selective index HFF (B. caballi; EC50 HFF / IC50 B. caballi): ˃ 12.6
- Selective index MDBK (B. caballi; EC50 MDBK / IC50 B. caballi): 4.4
- Selective index NIH/3T3 (B. caballi; EC50 NIH/3T3 / IC50 B. caballi): ˃ 12.6
- Selective index HFF (T. equi; EC50 HFF / IC50 T. equi): ˃ 34.7
- Selective index MDBK (T. equi; EC50 MDBK / IC50 T. equi): 12.1
- Selective index NIH/3T3 (T. equi; EC50 NIH/3T3 / IC50 T. equi): ˃ 34.7
- EC50 ([1]; Bos taurus): 34000 ± 3400 nM
- EC50 [1]: 34700 ± 3400 nM
- EC50 ([2]; Homo sapiens): > 100000 nM
- EC50 ([3]; Mus musculus, NIH3T3): > 100000 nM
